{"source": "ChEMBL document CHEMBL1201862", "about": "“PubChem BioAssay data set” (2004)", "key": {"[1]": {"target": "T1, Calpain-2 catalytic subunit (Sus scrofa, UniProt P43367)", "T1 sequence (P43367 whole entry)": "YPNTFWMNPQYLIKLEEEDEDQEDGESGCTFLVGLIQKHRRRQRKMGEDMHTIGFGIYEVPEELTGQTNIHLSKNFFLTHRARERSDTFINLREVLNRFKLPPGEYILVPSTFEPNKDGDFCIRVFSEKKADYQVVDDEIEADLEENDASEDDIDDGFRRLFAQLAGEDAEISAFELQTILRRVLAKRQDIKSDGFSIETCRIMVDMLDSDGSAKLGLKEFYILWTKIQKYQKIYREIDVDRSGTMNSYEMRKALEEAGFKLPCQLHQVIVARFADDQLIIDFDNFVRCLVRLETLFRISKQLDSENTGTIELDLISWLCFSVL", "test": "m-calpain protease blockers, concentration series – biochemical, fluorogenic peptide substrate, dose response (AID 1420)", "assay_type": "functional"}, "[2]": {"test": "viability loss in MITF-independent A375 cells – cell-based, CellTiter-Glo luminescence, dry powder, set 6, counter-screen for MITF inhibitor project, dose response (AID 624488)", "assay_type": "functional"}, "[3]": {"test": "viability loss in MITF-independent A375 cells – cell-based, CellTiter-Glo luminescence, dry powder, set 2, counter-screen for MITF inhibitor project, dose response (AID 624489);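 also: actives are compounds lowering A375 viability meaning general cytotoxicity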", "assay_type": "functional", "conditions": "A-375"}, "[4]": {"test": "viability loss in MITF-independent A375 cells – cell-based, CellTiter-Glo luminescence, dry powder, set 7, counter-screen for MITF inhibitor project, dose response (AID 624490)", "assay_type": "functional", "conditions": "A-375"}, "INS1": {"system": "INS1", "test": "INS-1E survival protection against cytokine death – cell-based, luminescence, retest, dose response (AID 449756);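 also: cell death triggered by IL-1 beta plus TNF-alpha plus IFN-gamma mixture; protective hits raise ATP signal compared with cytokine alone wells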", "assay_type": "functional", "conditions": "Rattus norvegicus"}, "[5]": {"test": "MITF Orthogonal Assay: SK-MEL-5 CTG Assay Measured in Cell-Based System Using Plate Reader - 2084-02_Inhibitor_Dose_DryPowder_Activity_Set5.", "assay_type": "functional"}, "Nonstructural protein 1": {"target": "Nonstructural protein 1 (Influenza A virus, UniProt Q194T2)", "assay_type": "functional, Influenza A virus (A/California/07/2009(H1N1))"}, "[6]": {"test": "cytotoxicity in MITF-independent A375 cells – cell-based, CellTiter-Glo luminescence, dry powder, set 4, counter-screen for MITF inhibitor project, dose response (AID 624364);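 also: A375 melanoma cells are MITF independent so this is a counter screen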", "assay_type": "functional", "conditions": "A-375"}, "[7]": {"target": "T2, Heat shock factor protein 1 (Mus musculus, UniProt P38532)", "T2 sequence (P38532 whole entry)": "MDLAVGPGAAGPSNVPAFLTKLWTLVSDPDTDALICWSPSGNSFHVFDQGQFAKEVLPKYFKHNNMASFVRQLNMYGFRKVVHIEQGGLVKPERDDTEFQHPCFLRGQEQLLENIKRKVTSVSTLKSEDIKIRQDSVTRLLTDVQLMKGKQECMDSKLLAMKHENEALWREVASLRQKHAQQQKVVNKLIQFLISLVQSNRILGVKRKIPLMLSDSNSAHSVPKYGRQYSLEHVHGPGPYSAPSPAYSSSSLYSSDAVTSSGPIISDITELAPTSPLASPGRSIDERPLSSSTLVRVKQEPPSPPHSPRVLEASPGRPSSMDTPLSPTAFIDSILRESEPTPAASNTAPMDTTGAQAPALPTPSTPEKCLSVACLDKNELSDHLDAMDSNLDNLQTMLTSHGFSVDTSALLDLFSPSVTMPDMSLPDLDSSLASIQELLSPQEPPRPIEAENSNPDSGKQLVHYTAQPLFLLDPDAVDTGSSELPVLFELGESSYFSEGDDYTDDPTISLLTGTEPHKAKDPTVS", "test": "enhancement of HSF1-driven luciferase signal – cell-based, NIH3T3, luminescence, dose retest, confirmation (AID 435004);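 also: stress induced by proteasome inhibitor MG132 added 30 min after compound; actives raise luminescence as potentiators of the MG132 stress response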", "assay_type": "functional"}, "[8]": {"test": "cytotoxicity in MITF-independent A375 cells – cell-based, CellTiter-Glo luminescence, dry powder, set 9, counter-screen for MITF modulator project, dose response (AID 651591)", "assay_type": "functional", "conditions": "A-375"}, "[9]": {"test": "cytotoxicity in melanoma parental cells – cell-based, CellTiter-Glo, dry powder, set 6, MITF inhibitor project, dose response (AID 624429)", "assay_type": "functional, SK-MEL-5"}, "[10]": {"test": "MITF Measured in Cell-Based System Using Plate Reader - 2084-01_Inhibitor_Dose_DryPowder_Activity_Set6.", "assay_type": "functional"}, "[11]": {"test": "melanocyte viability loss, MITF-dependent cells, cell-based, plate reader, dry powder, cytotoxicity control, dose response (AID 651920)", "assay_type": "functional"}, "[12]": {"target": "T3, Low molecular weight phosphotyrosine protein phosphatase (Homo sapiens, UniProt P24666)", "T3 sequence (P24666 whole entry)": "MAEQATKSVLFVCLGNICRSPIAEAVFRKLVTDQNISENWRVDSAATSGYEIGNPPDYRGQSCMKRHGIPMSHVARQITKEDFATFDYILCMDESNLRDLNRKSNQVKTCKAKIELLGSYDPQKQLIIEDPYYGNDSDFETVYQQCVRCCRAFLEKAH", "test": "inhibition of human LMPTP enzyme activity – biochemical, absorbance, pNPP substrate, LMPTP-A isoform, set 2, orthogonal assay, dose response (AID 743308)", "assay_type": "functional"}, "[13]": {"target": "T3, Low molecular weight phosphotyrosine protein phosphatase", "test": "inhibition of LMPTP-A enzymatic activity – biochemical, OMFP substrate, fluorescence intensity, set 2, dose response (AID 743307)", "assay_type": "functional"}, "[14]": {"target": "Mitogen-activated protein kinase 10 (Homo sapiens, UniProt P53779)", "test": "Dose response biochemical screening assay for inhibitors of c-Jun N-Terminal Kinase 3 (JNK3). [Related pubchem assays: 746 ]"}, "Leucine aminopeptidase": {"target": "T4, Leucine aminopeptidase (Plasmodium falciparum 3D7, UniProt Q8IL11)", "T4 sequence (Q8IL11 whole entry)": "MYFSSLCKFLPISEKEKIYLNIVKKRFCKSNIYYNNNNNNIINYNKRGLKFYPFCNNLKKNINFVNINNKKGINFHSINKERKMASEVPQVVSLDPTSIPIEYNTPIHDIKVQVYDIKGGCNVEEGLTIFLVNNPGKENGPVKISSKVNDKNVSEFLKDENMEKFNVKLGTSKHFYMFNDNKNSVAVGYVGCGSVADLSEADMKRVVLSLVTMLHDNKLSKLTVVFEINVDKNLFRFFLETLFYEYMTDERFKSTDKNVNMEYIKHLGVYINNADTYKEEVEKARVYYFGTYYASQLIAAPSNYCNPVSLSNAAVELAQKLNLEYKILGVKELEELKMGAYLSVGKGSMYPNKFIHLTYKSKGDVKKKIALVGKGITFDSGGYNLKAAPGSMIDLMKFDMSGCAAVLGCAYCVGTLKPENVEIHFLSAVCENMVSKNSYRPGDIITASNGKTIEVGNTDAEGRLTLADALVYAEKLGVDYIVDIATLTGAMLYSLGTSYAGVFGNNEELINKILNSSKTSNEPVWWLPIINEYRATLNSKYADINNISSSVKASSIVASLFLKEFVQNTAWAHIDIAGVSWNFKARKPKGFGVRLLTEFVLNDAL", "test": "P. falciparum M17LAP inhibitors, primary screen, biochemical, fluorogenic H-Leu-NHMec substrate, 1536-well (AID 1619)", "assay_type": "functional"}, "Major prion protein": {"target": "Major prion protein (Homo sapiens, UniProt P04156)", "assay_type": "functional, cell-based"}, "Beta-galactosidase": {"target": "Beta-galactosidase (Escherichia coli, UniProt Q8VNN2)", "test": "Dose response counterscreen for EBI2 assay utilizing the enzyme, b-galactosidase.", "assay_type": "functional"}, "[15]": {"target": "G-protein coupled receptor 183 (Homo sapiens, UniProt P32249)", "test": "Dose-response confirmation of small molecule antagonists of the EBI2 receptor via a luminescent beta-arrestin assay.", "assay_type": "functional"}, "[16]": {"test": "toxicity to human hepatoma HepG2 cells – cell-based, cherry-picked samples, cytotoxicity control, dose response (AID 1159577)", "assay_type": "functional"}, "[17]": {"test": "P. falciparum Dd2 growth inhibitors, dose response, SYBR Green, cherry-picked samples (AID 1159567)", "assay_type": "functional, cell-based"}}, "note": "Several values for one entry are separate records, joined by “and”; a condition that tells them apart may be missing. Equal values may be shown once. Activity calls are given as the source filed them.", "data": [{"smiles": "O=C1C=C(Nc2ccccc2)C(=O)c2ccccc21", "values": [{"measurement": "IC50", "setting": "[1]", "value": "6.16 µM (not active)"}, {"measurement": "AC50", "setting": "[2]", "value": "> 70 µM (inactive)"}, {"measurement": "AC50", "setting": "[2]; A-375", "value": "51.5 µM (active)"}, {"measurement": "AC50", "setting": "[3]", "value": "> 70 µM (inactive)"}, {"measurement": "AC50", "setting": "[4]", "value": "> 70 µM (inactive)"}, {"measurement": "AC50", "setting": "INS1", "value": "3.97 µM (active)"}, {"measurement": "AC50", "setting": "[5]; SK-MEL-5", "value": "1.53 µM (active)"}, {"measurement": "AC50", "setting": "[5]; sk-mel-5", "value": "1.18 µM (active)"}, {"measurement": "IC50", "setting": "Nonstructural protein 1", "value": "81.7 µM (active)"}, {"measurement": "AC50", "setting": "[6]", "value": "> 70 µM (inactive)"}, {"measurement": "EC50", "setting": "[7]", "value": "1.26 µM (active)"}, {"measurement": "AC50", "setting": "[8]", "value": "> 70 µM (inactive)"}, {"measurement": "AC50", "setting": "[9]; SK-MEL-5", "value": "2.37 µM (active)"}, {"measurement": "AC50", "setting": "[9]; sk-mel-5", "value": "1.93 µM (active)"}, {"measurement": "AC50", "setting": "[10]", "value": "7.24 µM (active) and 5.31 µM (active)"}, {"measurement": "AC50", "setting": "[11]", "value": "> 70 µM (inactive)"}]}, {"smiles": "c1ccc(-c2nc(N3CCCC3)c3ccccc3n2)cc1", "values": [{"measurement": "IC50", "setting": "[12]", "value": "> 80 µM (inactive)"}, {"measurement": "IC50", "setting": "[13]", "value": "42.1 µM (inactive)"}]}, {"smiles": "N#Cc1c(O)nc(SCC(=O)Nc2cccc(Cl)c2)nc1-c1ccco1", "values": [{"measurement": "IC50", "setting": "[14]", "value": "29.7 µM (not active)"}, {"measurement": "IC50", "setting": "Leucine aminopeptidase", "value": "2.5 µM (active)"}, {"measurement": "IC50", "setting": "Major prion protein", "value": "1.69 µM (active)"}, {"measurement": "IC50", "setting": "cells", "value": "> 138 µM (inactive)"}]}, {"smiles": "O=C(/C=C/c1ccccc1)N1CCN(S(=O)(=O)c2ccc(F)cc2)CC1", "values": [{"measurement": "IC50", "setting": "Beta-galactosidase", "value": "> 80 µM (inactive)"}, {"measurement": "IC50", "setting": "[15]", "value": "0.626 µM (active)"}]}, {"smiles": "N#Cc1ccc(-c2ccc([C@H]3[C@@H]4CN(C(=O)C5CCCC5)C[C@H]3N4)cc2)cc1", "values": [{"measurement": "AC50", "setting": "[16]", "value": "> 39 µM (inactive)"}, {"measurement": "AC50", "setting": "[17]", "value": "7.4 µM (active)"}]}]}
